These are literature values, as cited in patent US20170008834A1, “FUMARATE COMPOUNDS, PHARMACEUTICAL COMPOSITIONS THEREOF, AND METHODS OF USE” (priority 2015, published 2017).

For the compound `COC(=O)/C=C/C(=O)OC` [DMF, dimethylfumarate], the aqueous solubility result is “poor”.
